Measurements from the supplement of paper PMC10307832.

Legend:
Experiment in all cases: relative viability (nuclei count vs DMSO), 5 days (fraction); higher = more cells survive
Wnt-C59 + Palbociclib = compound: CC1=NC=CC(=C1)C2=CC=C(C=C2)CC(=O)NC3=CC=C(C=C3)C4=CN=CC=C4 [Wnt-C59] + CC(=O)c1c(C)c2cnc(Nc3ccc(N4CCNCC4)cn3)nc2n(C2CCCC2)c1=O [Palbociclib] (partner 0.5 µM)
In short: (§1)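 Relative viability equals treated-well nuclei counts divided by vehicle-well nuclei counts. Counts came from 4× images of lung cancer cell lines grown in 1536-well plates for 5 days after pin-tool dosing on the day after seeding. Dosing used one drug alone or a fixed anchor-drug dose plus five library-drug doses (not always all listed) in √10 steps, and values are medians of duplicate plates.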

Wnt-C59 + Bortezomib = compound: CC1=NC=CC(=C1)C2=CC=C(C=C2)CC(=O)NC3=CC=C(C=C3)C4=CN=CC=C4 [Wnt-C59] + CC(C)C[C@H](NC(=O)[C@H](Cc1ccccc1)NC(=O)c1cnccn1)B(O)O [Bortezomib] (partner 0.002 µM)
In short: as §1

Wnt-C59 + Luminespib = compound: CC1=NC=CC(=C1)C2=CC=C(C=C2)CC(=O)NC3=CC=C(C=C3)C4=CN=CC=C4 [Wnt-C59] + CCNC(=O)c1noc(-c2cc(C(C)C)c(O)cc2O)c1-c1ccc(CN2CCOCC2)cc1 [Luminespib] (partner 0.01 µM)
In short: as §1

Wnt-C59 + Tozasertib = compound: CC1=NC=CC(=C1)C2=CC=C(C=C2)CC(=O)NC3=CC=C(C=C3)C4=CN=CC=C4 [Wnt-C59] + Cc1cc(Nc2cc(N3CCN(C)CC3)nc(Sc3ccc(NC(=O)C4CC4)cc3)n2)n[nH]1 [Tozasertib] (partner 0.1 µM)
In short: as §1

Wnt-C59 + Phenformin = compound: CC1=NC=CC(=C1)C2=CC=C(C=C2)CC(=O)NC3=CC=C(C=C3)C4=CN=CC=C4 [Wnt-C59] + N=C(N)NC(=N)NCCc1ccccc1 [Phenformin] (partner 250 µM)
In short: as §1

Cell Line	relative viability (Wnt-C59 + Palbociclib; first compound 0.001 µM)	relative viability (Wnt-C59 + Palbociclib; first compound 0.01 µM)	relative viability (Wnt-C59 + Palbociclib; first compound 0.03162 µM)	relative viability (Wnt-C59 + Palbociclib; first compound 0.1 µM)	relative viability (Wnt-C59 + Bortezomib; first compound 0.001 µM)	relative viability (Wnt-C59 + Bortezomib; first compound 0.03162 µM)	relative viability (Wnt-C59 + Bortezomib; first compound 0.1 µM)	relative viability (Wnt-C59 + Luminespib; first compound 0.001 µM)	relative viability (Wnt-C59 + Luminespib; first compound 0.01 µM)	relative viability (Wnt-C59 + Luminespib; first compound 0.03162 µM)	relative viability (Wnt-C59 + Luminespib; first compound 0.1 µM)	relative viability (Wnt-C59 + Tozasertib; first compound 0.001 µM)	relative viability (Wnt-C59 + Tozasertib; first compound 0.01 µM)	relative viability (Wnt-C59 + Tozasertib; first compound 0.03162 µM)	relative viability (Wnt-C59 + Tozasertib; first compound 0.1 µM)	relative viability (Wnt-C59 + Phenformin; first compound 0.001 µM)	relative viability (Wnt-C59 + Phenformin; first compound 0.01 µM)	relative viability (Wnt-C59 + Phenformin; first compound 0.03162 µM)	relative viability (Wnt-C59 + Phenformin; first compound 0.1 µM)	relative viability (Wnt-C59 + Bortezomib; first compound 0.01 µM)
ChaGo-K-1	0.97	0.885	0.953	0.957	0.767	0.892	1.16	0.672	0.71	0.765	0.543	0.221	0.233	0.242	0.223	0.557	0.466	0.531	0.539	
LXF-289	0.624	0.551	0.602	0.606	0.969	0.99	1.02	0.607	0.666	0.618	0.712	0.22	0.221	0.182	0.194	0.552	0.535	0.552	0.503	0.965
LCLC-97TM1	0.254	0.228	0.216	0.248	0.608	0.761	0.919	0.756	0.763	0.616	0.742	0.252	0.205	0.226	0.182	0.397	0.425	0.475	0.429	0.878
NCI-H2347	0.437	0.445	0.484	0.417	0.808	0.922	1.1	0.565	0.339	0.498	0.877	0.581	0.453	0.446	0.618	0.446	0.369	0.249	0.388	1.12
PC-3 [JPC-3]	0.498	0.532	0.505	0.512	0.874	0.881	0.856	0.782	0.817	0.913	0.696	0.935	0.922	0.984	0.911	0.486	0.467	0.52	0.502	0.782
H3255	0.354	0.331	0.302	0.311	0.78	0.769	0.912	0.94	0.884	1.04	0.919	0.715	0.616	0.626	0.63	0.372	0.321	0.356	0.332	0.823
HOP-62	0.468	0.403	0.49	0.493	0.826	0.658	0.931	0.945	0.913	0.969	0.927	0.349	0.363	0.394	0.314	0.771	0.603	0.662	0.607	0.752
NCI-H441	0.265	0.206	0.247	0.237	0.364	0.593	0.682	0.428	0.247	0.276	0.407	0.691	0.646	0.691	0.566	0.845	0.732	1.04	0.724	0.236
PC-14	0.688	0.496	0.552	0.506	0.949	0.903	0.733	0.178	0.166	0.144	0.16	0.663	0.658	0.569	0.619	0.583	0.713	0.478	0.748	0.9
EMC-BAC-2	0.496	0.437	0.438	0.413	0.913	0.998	0.943	1.18	1.05	1.06	1.12	0.341	0.274	0.322	0.306	0.533	0.484	0.525	0.505	0.926
NCI-H2087	0.228	0.212	0.245	0.23	0.68	0.789	0.753	0.146	0.183	0.187	0.216	0.274	0.235	0.255	0.291	0.504	0.416	0.547	0.465	0.715
NCI-H1355	0.408	0.375	0.408	0.375	1.18	1.23	1.1	0.774	0.693	0.649	0.626	0.599	0.581	0.564	0.558	0.446	0.42	0.456	0.475	1.05
COR-L23	0.347	0.279	0.321	0.264	1.02	0.912	0.95	0.758	0.667	0.742	0.617	0.202	0.237	0.233	0.19	0.427	0.471	0.442	0.416	0.944
HCC-15	0.769	0.735	0.7	0.717	1.01	1.03	0.994	0.399	0.297	0.287	0.369	0.407	0.389	0.322	0.44	0.47	0.515	0.48	0.438	1.02
NCI-H2023	0.389	0.4	0.399	0.371	0.979	1.05	0.821	0.775	0.757	0.785	0.702	0.406	0.332	0.352	0.356	0.406	0.415	0.419	0.35	1.1
